Test results reported in BindingDB's records for doi:10.1021/acs.jmedchem.9b01152 (Universidad De Navarra, 2020).

Target: Histone deacetylase 8 (Homo sapiens) (UniProt Q9BY41)
Experiment: Inhibition of human recombinant HDAC8 using RHKAcKAc-AMC substrate by fluorescence based assay

Histone deacetylase 8 (Homo sapiens), sequence (Q9BY41 whole entry, looked up): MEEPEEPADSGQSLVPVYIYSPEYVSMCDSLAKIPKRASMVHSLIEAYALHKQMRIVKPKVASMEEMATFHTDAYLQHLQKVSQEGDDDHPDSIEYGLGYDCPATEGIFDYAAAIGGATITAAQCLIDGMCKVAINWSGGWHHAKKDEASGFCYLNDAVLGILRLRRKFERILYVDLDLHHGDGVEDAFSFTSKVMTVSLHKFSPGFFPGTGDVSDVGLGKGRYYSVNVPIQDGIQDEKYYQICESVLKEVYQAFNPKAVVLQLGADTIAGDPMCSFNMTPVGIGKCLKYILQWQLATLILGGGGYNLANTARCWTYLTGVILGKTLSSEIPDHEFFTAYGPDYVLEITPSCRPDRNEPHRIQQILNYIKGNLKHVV

## O=c1c2ccccc2[se]n1-c1ccccc1 [2-Phenyl-benzo[d]isoselenazol-3-one]
  IC50: 1200 nM
